Tested on: IGROV1 complex spheroids (HUVEC, MSC), viability % test/control
Experiment: Anticancer human tumor IGROV1 cell line growth inhibition [GQUAD];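 note: spheroids exposed to compounds for 7 days before readout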
Conditions: for IC50: curve of first compound; for viability, T/C: stronger effect = lower value
Text: DNA G-quadruplex Stabilizer Agents in Combinations in Complex Spheroids
A high-throughput screen of multi-cell type tumor spheroids was designed to identify active combinations of DNA G-quadruplex stabilizer agents and targeted small molecules. Complex spheroids include a stromal component modeled by human endothelial cells (HUVEC) and fibroblasts modeled by human mesenchymal stem cells (MSCs). The concentration ranges selected for each drug and investigational agent were based upon clinically achievable concentrations if the clinical Cmax of the agent was known.
Compounds. The drugs and investigational agents: pidnarulex (CX-5461; NSC782164), APTO-253 (NSC789042), BRACO-19 (NSC847499), peposertib (NSC802822), ceralasertib (NSC780249), elimusertib (NSC800525), camonsertib (NSC841442), AZD-1390 (NSC803789), olaparib (NSC753686), talazoparib (NSC767125), ART-558 (NSC835418), sotorasib (NSC818433), MRTX-1133 (NSC836407), SN-38 (NSC673596), topotecan (NSC609699), etoposide (NSC141540), doxorubicin (NSC123127), gemcitabine (NSC613327), 5-fluorouracil (NSC19893), paclitaxel (NSC125973), vemurafenib (NSC761431), panobinostat (NSC761190), R-306465 (JNJ-16241199; NSC773264), adavosertib (NSC754352), TP-3654 (NSC805149), carboplatin (NSC241240), KSQ-4279 (NSC840948), and staurosporine (NSC755774) were obtained from the National Cancer Institute (NCI) Developmental Therapeutics Program Chemical Repository (34). The FDA-approved anticancer drug set is available from the NCI Developmental Therapeutics Program. […] The stock solutions were prepared in dimethyl sulfoxide (DMSO, Sigma-Aldrich, St. Louis, MO, cat. D2650) at 800-fold the tested concentration and stored at -70 degrees C prior to their use. All drugs and investigational agents were tested over a range starting from a high concentration at or near the clinical Cmax and decreasing in half-log increments. If the clinical Cmax for an agent had not been determined, the highest concentration tested was 10 microM.
2.3 Cell Culture. All cells were maintained in an incubator at 37 degrees C and 5% CO2 with 95% humidity. The PDC lines were cultured according to standard operating procedures established by the NCI PDMR. All PDCs were thawed and cultured in Matrigel-coated flasks prepared with a working solution of 1X Ham's F-12 nutrient mix, without supplementation (Invitrogen, cat. 11765054), 100 U/mL penicillin-streptomycin (Invitrogen, cat. 15140122), and 2.5% Matrigel (Corning Inc., cat. 354248) for the first three passages. The 857933-349-R-J2-PDC line was cultured in 6C/Colon 1B media, which includes advanced DMEM/F-12 (Thermo Fisher Scientific, cat. 12634028), 10 mM HEPES (Thermo Fisher Scientific, cat. 15630080), 1X GlutaMAX supplement (Thermo Fisher Scientific, cat. 35050061), 0.1 mg/mL primocin (InvivoGen, cat. ant-pm-2), 10% defined fetal bovine serum, heat inactivated (HyClone Laboratories Inc., cat. SH30070.03HI), 50% L-WRN conditioned media (ATCC, cat. CRL-3276), 1.25 mM N-Acetyl-L-cysteine (Sigma-Aldrich, cat. A9165), 10 mM nicotinamide (Sigma-Aldrich, cat. N0636), 1X B-27 supplement (Thermo Fisher Scientific, cat. 17504044), 1X N-2 supplement (Thermo Fisher Scientific, cat. 17502048), 10 microM Y-27632 dihydrochloride (Tocris Bioscience, cat. 1254), and 50 ng/mL human EGF recombinant protein (Thermo Fisher Scientific, cat. PHG0311). The 485176-168-R4-J1-PDC line was cultured in Panc media, which includes all 6C/Colon 1B media components plus 100 ng/mL human FGF-10 (Thermo Fisher Scientific, cat. 100-26), 500 nM SB-431542 (Selleckchem, cat. S1067), and gastrin (Tocris, cat. 3006).
[…]

[1] = second compound 0.0316 µM, first compound 0.0316 µM
[2] = second compound 0.0316 µM, first compound 0.1 µM
[3] = second compound 0.0316 µM, first compound 0.316 µM
[4] = second compound 0.0316 µM, first compound 1 µM
[5] = second compound 0.0316 µM, first compound 3.16 µM
[6] = second compound 0.0316 µM, first compound 10 µM
[7] = second compound 0.1 µM, first compound 0.0316 µM
[8] = second compound 0.1 µM, first compound 0.1 µM
[9] = second compound 0.1 µM, first compound 0.316 µM
[10] = second compound 0.1 µM, first compound 1 µM
[11] = second compound 0.1 µM, first compound 3.16 µM
[12] = second compound 0.1 µM, first compound 10 µM
[13] = second compound 0.316 µM, first compound 0.0316 µM
[14] = second compound 0.316 µM, first compound 0.1 µM
[15] = second compound 0.316 µM, first compound 0.316 µM
[16] = second compound 0.316 µM, first compound 1 µM
[17] = second compound 0.316 µM, first compound 3.16 µM
[18] = second compound 0.316 µM, first compound 10 µM
[19] = second compound 1 µM, first compound 0.0316 µM
[20] = second compound 1 µM, first compound 0.1 µM
[21] = second compound 1 µM, first compound 0.316 µM
[22] = second compound 1 µM, first compound 1 µM
[23] = second compound 1 µM, first compound 3.16 µM
[24] = second compound 1 µM, first compound 10 µM
[25] = second compound 3.16 µM, first compound 0.0316 µM
[26] = second compound 3.16 µM, first compound 0.1 µM
[27] = second compound 3.16 µM, first compound 0.316 µM
[28] = second compound 3.16 µM, first compound 1 µM
[29] = second compound 3.16 µM, first compound 3.16 µM
[30] = second compound 3.16 µM, first compound 10 µM
[31] = second compound 10 µM, first compound 0.0316 µM
[32] = second compound 10 µM, first compound 0.1 µM
[33] = second compound 10 µM, first compound 0.316 µM
[34] = second compound 10 µM, first compound 1 µM
[35] = second compound 10 µM, first compound 3.16 µM
[36] = second compound 10 µM, first compound 10 µM

Molecule `C#Cc1c(F)ccc2cc(O)cc(-c3ncc4c(N5CC6CCC(C5)N6)nc(OCC56CCCN5CC(F)C6)nc4c3F)c12` (stereo unspecified) + CN(C)c1ccc(Nc2c3ccc(NC(=O)CCN4CCCC4)cc3nc3cc(NC(=O)CCN4CCCC4)ccc23)cc1 has an IC50 (second compound 0.0316 µM) greater than 10 µM, an IC50 (second compound 0.1 µM) greater than 10 µM and an IC50 (second compound 0.316 µM) greater than 10 µM. For the same molecule, the IC50 (second compound 1 µM) was 8.19 µM, the IC50 (second compound 3.16 µM) was 5.09 µM and the IC50 (second compound 10 µM) was 0.378 µM. The viability, T/C [1] was 106%, the viability, T/C [2] was 76.6% and the viability, T/C [3] was 97.9%. For the same molecule, the viability, T/C [4] was 78.1%, the viability, T/C [5] was 84.5% and the viability, T/C [6] was 62.2%. It also gave a viability, T/C [7] of 97.3%, a viability, T/C [8] of 83.7% and a viability, T/C [9] of 88%. It also gave a viability, T/C [10] of 84.3%, a viability, T/C [11] of 93% and a viability, T/C [12] of 62.1%. It also gave a viability, T/C [13] of 87.8%, a viability, T/C [14] of 99.1% and a viability, T/C [15] of 76.3%. For the same molecule, the viability, T/C [16] was 86%, the viability, T/C [17] was 89.5% and the viability, T/C [18] was 54%. For the same molecule, the viability, T/C [19] was 86.1%, the viability, T/C [20] was 89% and the viability, T/C [21] was 86.7%. It also gave a viability, T/C [22] of 73.6%, a viability, T/C [23] of 74.1% and a viability, T/C [24] of 44.8%. The viability, T/C [25] was 86.4%, the viability, T/C [26] was 85.4% and the viability, T/C [27] was 87.7%. The viability, T/C [28] was 79%, the viability, T/C [29] was 66.2% and the viability, T/C [30] was 27.9%. It also gave a viability, T/C [31] of 50%, a viability, T/C [32] of 50.4% and a viability, T/C [33] of 59.8%. It also gave a viability, T/C [34] of 38%, a viability, T/C [35] of 17.2% and a viability, T/C [36] of 5.16%.
Work on `CC(=O)O[C@H]1C(=O)[C@@]2(C)[C@H]([C@H](OC(=O)c3ccccc3)[C@]3(O)C[C@H](OC(=O)[C@H](O)[C@@H](NC(=O)c4ccccc4)c4ccccc4)C(C)=C1C3(C)C)[C@]1(OC(C)=O)CO[C@@H]1C[C@@H]2O` + CN(C)c1ccc(Nc2c3ccc(NC(=O)CCN4CCCC4)cc3nc3cc(NC(=O)CCN4CCCC4)ccc23)cc1 yielded an IC50 (second compound 0.0316 µM) of less than 0.0316 µM, an IC50 (second compound 0.1 µM) of less than 0.0316 µM and an IC50 (second compound 0.316 µM) of less than 0.0316 µM. For the same molecule, the IC50 (second compound 1 µM) was less than 0.0316 µM, the IC50 (second compound 3.16 µM) was less than 0.0316 µM and the IC50 (second compound 10 µM) was less than 0.0316 µM. For the same molecule, the viability, T/C [1] was 7.64%, the viability, T/C [2] was 6.24% and the viability, T/C [3] was 6.32%. For the same molecule, the viability, T/C [4] was 5.33%, the viability, T/C [5] was 5% and the viability, T/C [6] was 6.24%. The viability, T/C [7] was 7.68%, the viability, T/C [8] was 5.09% and the viability, T/C [9] was 5.96%. It also gave a viability, T/C [10] of 5.48%, a viability, T/C [11] of 6.36% and a viability, T/C [12] of 6.3%. It also gave a viability, T/C [13] of 8.36%, a viability, T/C [14] of 5.82% and a viability, T/C [15] of 5.8%. It also gave a viability, T/C [16] of 5.16%, a viability, T/C [17] of 5.67% and a viability, T/C [18] of 6.87%. For the same molecule, the viability, T/C [19] was 7.67%, the viability, T/C [20] was 6.92% and the viability, T/C [21] was 6.05%. It also gave a viability, T/C [22] of 5.19%, a viability, T/C [23] of 6.15% and a viability, T/C [24] of 5.74%. The viability, T/C [25] was 6.2%, the viability, T/C [26] was 8.18% and the viability, T/C [27] was 6.89%. The viability, T/C [28] was 5.22%, the viability, T/C [29] was 6.1% and the viability, T/C [30] was 5.7%. The viability, T/C [31] was 7.12%, the viability, T/C [32] was 6.03% and the viability, T/C [33] was 5.99%. It also gave a viability, T/C [34] of 4.33%, a viability, T/C [35] of 4.7% and a viability, T/C [36] of 4.57%.
Work on `O=c1[nH]cc(F)c(=O)[nH]1` + CN(C)c1ccc(Nc2c3ccc(NC(=O)CCN4CCCC4)cc3nc3cc(NC(=O)CCN4CCCC4)ccc23)cc1 yielded an IC50 (second compound 0.0316 µM) of 6.41 µM, an IC50 (second compound 0.1 µM) of 6.78 µM and an IC50 (second compound 0.316 µM) of 6.4 µM. It also gave an IC50 (second compound 1 µM) of 5.9 µM, an IC50 (second compound 3.16 µM) of 6.18 µM and an IC50 (second compound 10 µM) of 3.69 µM. For the same molecule, the viability, T/C [1] was 112%, the viability, T/C [2] was 96.7% and the viability, T/C [3] was 104%. The viability, T/C [4] was 82.3%, the viability, T/C [5] was 90.6% and the viability, T/C [6] was 27.7%. The viability, T/C [7] was 97.6%, the viability, T/C [8] was 94% and the viability, T/C [9] was 83.1%. The viability, T/C [10] was 84.3%, the viability, T/C [11] was 90.4% and the viability, T/C [12] was 29.8%. For the same molecule, the viability, T/C [13] was 92.1%, the viability, T/C [14] was 87.8% and the viability, T/C [15] was 96.8%. The viability, T/C [16] was 88.2%, the viability, T/C [17] was 83% and the viability, T/C [18] was 29.1%. It also gave a viability, T/C [19] of 69.5%, a viability, T/C [20] of 72% and a viability, T/C [21] of 78.8%. The viability, T/C [22] was 90.8%, the viability, T/C [23] was 90.4% and the viability, T/C [24] was 24.2%. For the same molecule, the viability, T/C [25] was 73.3%, the viability, T/C [26] was 84.8% and the viability, T/C [27] was 94.1%. The viability, T/C [28] was 86.2%, the viability, T/C [29] was 81% and the viability, T/C [30] was 27.7%. For the same molecule, the viability, T/C [31] was 66.5%, the viability, T/C [32] was 58% and the viability, T/C [33] was 52.8%. The viability, T/C [34] was 70.1%, the viability, T/C [35] was 55.2% and the viability, T/C [36] was 16.4%.

From PubChem BioAssay AID2060486 (Molecular Pharmacology Branch, DTP, NCI, 2025)
